Values of other authors in patent US12016850B2, “Modified release pharmaceutical formulations comprising deferiprone” (Chiesi Farmaceutici S.p.A., priority 2022, dated 2024).

Details: background statement, species not given

- half-life: 2 to 3 h
SMILES: Cc1c(O)c(=O)ccn1C [Deferiprone, 3-hydroxy-1,2-dimethylpyridin-4-one]
